In PubChem BioAssay (NCI):
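Grown in 96-well plates, cells were treated for 48 hours with each compound at five concentrations. Insufficient inhibition: endpoint recorded as highest concentration tested. At the GI50, growth is halved. TGI: total growth inhibition.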

Experiments:
Assay in all cases: NCI anticancer screen, dose series, 48 h
[1] = system: CAKI-1 renal
[2] = system: CCRF-CEM leukemia
[3] = system: M14 melanoma
[4] = system: RPMI-8226 leukemia
[5] = system: LOX IMVI melanoma
[6] = system: MOLT-4 leukemia
[7] = system: UACC-62 melanoma
[8] = system: A498 renal
[9] = system: SNB-75 CNS
[10] = system: K-562 leukemia
[11] = system: UACC-257 melanoma
[12] = system: BT-549 breast
[13] = system: SK-MEL-28 melanoma
[14] = system: HOP-62 NSCLC
[15] = system: HCC-2998 colon
[16] = system: OVCAR-8 ovarian
[17] = system: T-47D breast
[18] = system: UO-31 renal
[19] = system: NCI-H226 lung
[20] = system: A549 NSCLC
[21] = system: NCI-H522 lung
[22] = system: MCF7 breast
[23] = system: MDA-MB-231 breast
[24] = system: SF-268 CNS
[25] = system: COLO 205 colon
[26] = system: OVCAR-3 ovarian
[27] = system: MDA-MB-435
[28] = system: OVCAR-5 ovarian
[29] = system: NCI-H23 lung
[30] = system: PC-3 prostate
[31] = system: IGROV1 ovarian
[32] = system: SK-OV-3 ovarian
[33] = system: SF-539 CNS
[34] = system: SK-MEL-2 melanoma
[35] = system: KM12 colon
[36] = system: HT29 colon
[37] = system: RXF 393 renal
[38] = system: SF-295 CNS
[39] = system: HS 578T breast
[40] = system: OVCAR-4 ovarian
[41] = system: ACHN renal
[42] = system: SK-MEL-5 melanoma
[43] = system: SNB-19 CNS
[44] = system: NCI/ADR-RES ovarian
[45] = system: DU-145 prostate
[46] = system: HCT-116 colon
[47] = system: 786-0 renal
[48] = system: HL-60(TB) leukemia
[49] = system: SR leukemia
[50] = system: SW-620 colon
[51] = system: NCI-H460 lung
[52] = system: HOP-92 NSCLC
[53] = system: MALME-3M melanoma
[54] = system: EKVX NSCLC
[55] = system: SN12C renal
[56] = system: U251 CNS
[57] = system: TK-10 renal
[58] = system: HCT-15 colon

O=C1c2ccc3c4c(ccc(c24)C(=O)N1CCCNCc1ccccc1F)C(=O)N(CCCNCc1ccccc1F)C3=O
GI50 [1]: 0.187 µM | TGI [1]: 0.495 µM | GI50 [2]: 0.166 µM | GI50 [3]: 0.152 µM | TGI [3]: 0.293 µM | GI50 [4]: 0.272 µM | TGI [4]: 0.818 µM | GI50 [5]: 0.121 µM | TGI [5]: 0.317 µM | GI50 [6]: 0.144 µM | TGI [6]: 0.544 µM | GI50 [7]: 0.179 µM | TGI [7]: 0.335 µM | GI50 [8]: 0.31 µM | TGI [8]: 1.72 µM | GI50 [9]: 0.164 µM | TGI [9]: 0.32 µM | GI50 [10]: 0.209 µM | TGI [10]: 5.52 µM | GI50 [11]: 0.172 µM | TGI [11]: 0.34 µM | GI50 [12]: 0.317 µM | TGI [12]: 0.767 µM | GI50 [13]: 0.21 µM | TGI [13]: 0.465 µM | GI50 [14]: 0.151 µM | TGI [14]: 0.331 µM | GI50 [15]: 0.158 µM | TGI [15]: 0.312 µM | GI50 [16]: 0.0954 µM | TGI [16]: 0.422 µM | GI50 [17]: 0.194 µM | TGI [17]: 0.417 µM | GI50 [18]: 0.194 µM | TGI [18]: 0.468 µM | GI50 [19]: 0.21 µM | TGI [19]: 0.482 µM | GI50 [20]: 0.107 µM | TGI [20]: 0.294 µM | GI50 [21]: 0.154 µM | TGI [21]: 0.298 µM | GI50 [22]: 0.109 µM | TGI [22]: 0.359 µM | GI50 [23]: 0.25 µM | TGI [23]: 0.717 µM | GI50 [24]: 0.208 µM | TGI [24]: 0.534 µM | GI50 [25]: 0.0863 µM | TGI [25]: 0.208 µM | GI50 [26]: 0.189 µM | TGI [26]: 0.557 µM | GI50 [27]: 0.175 µM | TGI [27]: 0.359 µM | GI50 [28]: 0.2 µM | TGI [28]: 0.449 µM | GI50 [29]: 0.171 µM | TGI [29]: 0.369 µM | GI50 [30]: 0.228 µM | TGI [30]: 0.658 µM | GI50 [31]: 0.18 µM | TGI [31]: 0.543 µM | GI50 [32]: 0.249 µM | TGI [32]: 0.635 µM | GI50 [33]: 0.208 µM | TGI [33]: 0.464 µM | GI50 [34]: 0.192 µM | TGI [34]: 0.366 µM | GI50 [35]: 0.127 µM | TGI [35]: 0.285 µM | GI50 [36]: 0.0494 µM | TGI [36]: 0.203 µM | GI50 [37]: 0.138 µM | TGI [37]: 0.274 µM | GI50 [38]: 0.176 µM | TGI [38]: 0.409 µM | GI50 [39]: 0.523 µM | TGI [39]: 2.86 µM | GI50 [40]: 0.109 µM | TGI [40]: 0.237 µM | GI50 [41]: 0.127 µM | TGI [41]: 0.563 µM | GI50 [42]: 0.163 µM | TGI [42]: 0.299 µM | GI50 [43]: 0.136 µM | TGI [43]: 0.275 µM | GI50 [44]: 0.206 µM | TGI [44]: 0.726 µM | GI50 [45]: 0.154 µM | TGI [45]: 0.287 µM | GI50 [46]: 0.0676 µM | TGI [46]: 0.303 µM | GI50 [47]: 0.217 µM | TGI [47]: 0.587 µM | GI50 [48]: 0.239 µM | TGI [48]: 0.542 µM | GI50 [49]: 0.123 µM | TGI [49]: 0.614 µM | GI50 [50]: 0.0754 µM | TGI [50]: 0.274 µM | GI50 [51]: 0.154 µM | TGI [51]: 0.504 µM | GI50 [52]: 0.238 µM | TGI [52]: 0.566 µM | GI50 [53]: 0.151 µM | TGI [53]: 0.299 µM | GI50 [54]: 0.171 µM | TGI [54]: 0.331 µM | GI50 [55]: 0.144 µM | TGI [55]: 0.296 µM

COC(=O)[C@@H]1CCCN1C(=O)[C@@H]1CCCN1C(=O)[C@H](Cc1ccccc1)NC(=S)Nc1cc(C(F)(F)F)cc(C(F)(F)F)c1
GI50 [1]: 3.55 µM | TGI [1]: > 100 µM | GI50 [2]: 3.54 µM | TGI [2]: > 100 µM | GI50 [3]: 3.7 µM | TGI [3]: > 100 µM | GI50 [4]: 3.36 µM | TGI [4]: 41 µM | GI50 [5]: 2.6 µM | TGI [5]: 9.89 µM | GI50 [6]: 2.88 µM | TGI [6]: 7.88 µM | GI50 [56]: 2.79 µM | TGI [56]: 13.2 µM | GI50 [7]: 3.3 µM | TGI [7]: 63.5 µM | GI50 [8]: 2.55 µM | TGI [8]: 22.9 µM | GI50 [9]: 2.06 µM | TGI [9]: 61 µM | GI50 [57]: 5.41 µM | TGI [57]: > 100 µM | GI50 [11]: 2.92 µM | TGI [11]: 11.4 µM | GI50 [12]: 4.39 µM | TGI [12]: 71.5 µM | GI50 [13]: 3.48 µM | TGI [13]: > 100 µM | GI50 [14]: 4.56 µM | TGI [14]: 72.5 µM | GI50 [15]: 2.65 µM | TGI [15]: 7.06 µM | GI50 [16]: 4.31 µM | TGI [16]: > 100 µM | GI50 [17]: 4.27 µM | TGI [17]: > 100 µM | GI50 [18]: 3.3 µM | TGI [18]: > 100 µM | GI50 [19]: 3.39 µM | TGI [19]: > 100 µM | GI50 [20]: 3.82 µM | TGI [20]: > 100 µM | GI50 [21]: 3.17 µM | TGI [21]: 9.6 µM | GI50 [58]: 3.8 µM | TGI [58]: > 100 µM | GI50 [22]: 3.08 µM | TGI [22]: > 100 µM | GI50 [23]: 2.04 µM | TGI [23]: 5.6 µM | GI50 [24]: 4.83 µM | TGI [24]: > 100 µM | GI50 [25]: 2.43 µM | TGI [25]: 5.85 µM | GI50 [26]: 3.43 µM | TGI [26]: 9.98 µM | GI50 [27]: 3.29 µM | TGI [27]: > 100 µM | GI50 [28]: 3.8 µM | TGI [28]: 42.4 µM | GI50 [29]: 3.16 µM | TGI [29]: > 100 µM | GI50 [30]: 2.72 µM | TGI [30]: 26.2 µM | GI50 [31]: 7.24 µM | TGI [31]: > 100 µM | GI50 [32]: 9.26 µM | TGI [32]: > 100 µM | GI50 [33]: 4.51 µM | TGI [33]: > 100 µM | GI50 [34]: 2.93 µM | TGI [34]: 7.39 µM | GI50 [35]: 3.93 µM | TGI [35]: > 100 µM | GI50 [36]: 2.76 µM | TGI [36]: 6.51 µM | GI50 [37]: 2.19 µM | TGI [37]: 7.41 µM | GI50 [38]: 2.16 µM | TGI [38]: 4.82 µM | GI50 [39]: 4.49 µM | TGI [39]: > 100 µM | GI50 [40]: 4.29 µM | TGI [40]: > 100 µM | GI50 [41]: 3.98 µM | TGI [41]: > 100 µM | GI50 [42]: 2.6 µM | TGI [42]: 9.18 µM | GI50 [43]: 3.77 µM | TGI [43]: > 100 µM | GI50 [44]: 2.99 µM | TGI [44]: > 100 µM | GI50 [45]: 5.06 µM | TGI [45]: > 100 µM | GI50 [46]: 3.01 µM | TGI [46]: 15.2 µM | GI50 [47]: 4.47 µM | TGI [47]: > 100 µM | GI50 [48]: 2.53 µM | TGI [48]: 5.49 µM | GI50 [49]: 3.69 µM | TGI [49]: 24.9 µM | GI50 [50]: 5.11 µM | TGI [50]: > 100 µM | GI50 [51]: 3.4 µM | TGI [51]: > 100 µM | GI50 [52]: 1.77 µM | TGI [52]: 5.65 µM | GI50 [53]: 5.53 µM | TGI [53]: > 100 µM | GI50 [54]: 3.07 µM | TGI [54]: > 100 µM | GI50 [55]: 3.47 µM | TGI [55]: > 100 µM
